According to US12564622B2, “Preventing cytokine release syndrome” (priority 2017, dated 2026):
Entries after “also recorded” stand apart in the source; their conditions may differ.

Test system: anti-CD3 antibody-induced CRS in BALB/c mice
Assay: Anti-CD3 treatment induced CRS
Assay type: in vivo, mouse (BALB/c)
Protocol: (§1) Metyrosine was freshly dissolved in PBS and injected IP at 60 mg/kg/day for three days prior to injection of anti-CD3 antibodies. […] Thirty minutes before the IP injection of the anti-mouse CD3 antibody (BioXcell, 145-2C11), metyrosine was IP injected at 60 mg/kg into the contralateral side. A single additional dose of 30 mg/kg metyrosine was injected IP on the following day. Control groups were injected with PBS at the same times.
as §1, with “times. For experiments with conditional TH knockout mice, 4-6 week-old LysMcre: TH fl/fl (TH^ΔLysM) mice with C57BL/6 background were used and LysMcre: TH+/+ mice of the same age were used as control. In these experiments, 200 μg/mouse anti-mouse CD3 antibody was injected IP.” for “times.”

[1] = 24 hours after anti-CD3, metyrosine pre-treatment

C[C@](N)(Cc1ccc(O)cc1)C(=O)O [metyrosine, α-methyl-tyrosine]
IL-2 and IFN-γ [1]: not significantly affected | circulating catecholamines [1]: reduced to near normal levels; also recorded: significantly reduced | pro-inflammatory cytokines (IL-6, TNF-α, KC, MIP-2, MIP-1α) [1]: major reductions | mice surviving (of mice pre-treated) (anti-CD3 125 μg/mouse, metyrosine pre-treatment): eleven of the twelve; also recorded: twelve of the fifteen
